Results taken from the supplement of paper PMC10307832.

Tests used:
Experiment in all cases: relative viability (nuclei count vs DMSO), 5 days (fraction); higher = more cells survive
[1] = compound: Cn1cc(-c2cnn3c(N)c(Br)c([C@@H]4CCCNC4)nc23)cn1 + Nc1ncn([C@H]2C[C@H](O)[C@@H](CO)O2)c(=O)n1 [Decitabine] (partner 2 µM)
Method in brief: (§1)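 A single step with final 0.05% Triton X-100, 1% formaldehyde and 1 ug/ml Hoechst fixed the cells and stained nuclei 5 days after treatment. Lung cancer cell lines in 1536-well plates had been treated by pin tool the day after seeding with one drug alone or a fixed anchor-drug dose plus five library-drug doses (not always all listed) in √10 steps, and nuclei were counted on 4× images. Relative viability is the ratio of nuclei in treated wells to nuclei in vehicle wells, taken as the median of duplicate plates.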

[2] = compound: Cn1cc(-c2cnn3c(N)c(Br)c([C@@H]4CCCNC4)nc23)cn1 + C[C@@H](Oc1cc(-c2cnn(C3CCNCC3)c2)cnc1N)c1c(Cl)ccc(F)c1Cl [Crizotinib] (partner 1 µM)
Method in brief: as §1

[3] = compound: Cn1cc(-c2cnn3c(N)c(Br)c([C@@H]4CCCNC4)nc23)cn1 + N=C(N)NC(=N)NCCc1ccccc1 [Phenformin] (partner 250 µM)
Method in brief: as §1

[4] = compound: Cn1cc(-c2cnn3c(N)c(Br)c([C@@H]4CCCNC4)nc23)cn1 + CC1(C)CCC(c2ccc(Cl)cc2)=C(CN2CCN(c3ccc(C(=O)NS(=O)(=O)c4ccc(N[C@H](CCN5CCOCC5)CSc5ccccc5)c(S(=O)(=O)C(F)(F)F)c4)cc3)CC2)C1 [Navitoclax] (partner 0.5 µM)
Method in brief: as §1

Cell Line	relative viability ([1]; first compound 0.05 µM)	relative viability ([1]; first compound 0.1581 µM)	relative viability ([1]; first compound 0.5 µM)	relative viability ([1]; first compound 1.581 µM)	relative viability ([1]; first compound 5 µM)	relative viability ([2]; first compound 0.05 µM)	relative viability ([2]; first compound 0.1581 µM)	relative viability ([2]; first compound 0.5 µM)	relative viability ([2]; first compound 1.581 µM)	relative viability ([2]; first compound 5 µM)	relative viability ([3]; first compound 0.05 µM)	relative viability ([3]; first compound 0.1581 µM)	relative viability ([3]; first compound 0.5 µM)	relative viability ([3]; first compound 1.581 µM)	relative viability ([3]; first compound 5 µM)	relative viability ([4]; first compound 0.05 µM)	relative viability ([4]; first compound 0.1581 µM)	relative viability ([4]; first compound 0.5 µM)	relative viability ([4]; first compound 1.581 µM)	relative viability ([4]; first compound 5 µM)
HCC-366	0.307	0.338	0.334	0.347	0.247	0.53	0.737	0.474	0.405	0.209	0.617	0.67	0.618	0.558	0.507	1.11	1.07	1.09	0.918	0.771
HCC-827	0.34	0.38	0.339	0.361	0.305	0.929	1	0.909	0.899	0.871	0.289	0.452	0.368	0.388	0.389	1.03	1.04	1.04	1.01	0.99
HOP-62	0.252	0.2	0.191	0.239	0.269	0.999	1.07	1.01	0.925	0.884	0.648	0.866	0.737	0.527	0.62	0.985	1.18	1.16	0.97	0.479
LC-2-ad	0.856	0.811	0.856	0.781	0.908	0.503	0.439	0.419	0.447	0.426	0.558	0.643	0.64	0.539	0.529	0.394	0.606	0.395	0.423	0.429
LCLC-97TM1	0.22	0.297	0.222	0.278	0.295	0.34	0.658	0.581	0.483	0.228	0.499	0.47	0.464	0.458	0.411	0.462	0.439	0.325	0.343	0.46
LK-2	0.323	0.337	0.254	0.272	0.23	0.23	0.216	0.188	0.243	0.232	0.374	0.471	0.258		0.286	0.915	0.711	0.699	0.627	0.555
LOU-NH91	0.82	0.81	0.796	0.801	0.729	0.727	0.724	0.739	0.713	0.626	0.668	0.657	0.679	0.706	0.562	0.732	0.666	0.644	0.67	0.474
LU99A	0.912	0.92	0.875	0.822	1.01	0.55	0.573	0.551	0.482	0.31	0.749	0.789	0.766	0.802	0.582	0.962	0.875	0.801	0.699	0.601
LXF-289	0.368	0.41	0.401	0.382	0.485	0.82	0.929	0.945	0.81	0.807	0.525	0.57	0.496	0.486	0.528	0.96	1.06	1.07	0.906	1.02
NCI-H23	0.295	0.278	0.362	0.267	0.269	0.444	0.534	0.437	0.322	0.183	0.834	0.713	0.835	0.747	0.187	1.01	1.04	0.72	0.602	0.342
NCI-H322M	0.617	0.706	0.65	0.635	0.44	0.874	0.962	0.884	0.785	0.576	0.681	0.595	0.717	0.474	0.254	1.08	1.24	1.18	1.2	1.19
NCI-H441	0.257	0.249	0.26	0.22	0.257	0.639	1.24	0.648	0.703	0.709	0.785	1.15	0.915	0.841	0.727	0.534	0.857	0.671		0.696
NCI-H460	0.523	0.546	0.31	0.356	0.19	1.01	1.36	1.03	0.842	0.3	0.493	0.512	0.456	0.176	0.0895	1.04	1.32	0.972	0.749	0.448
NCI-H520	0.528	0.543	0.57	0.527	0.306	0.743	0.821	0.694	0.601	0.589	0.52	0.587	0.596	0.461	0.348	1.21	1.01	0.966	1.13	0.883
NCI-H596	0.973	0.968	1.03	0.916	1.12	0.943	1.01	1.05	0.906	0.953	0.865	0.825	0.729	0.561	0.691	1.01	1.02	1.13	0.847	0.904
NCI-H647	0.434	0.522	0.42	0.409	0.143	1.27	1.33	0.883	0.675	0.232	0.367	0.491	0.598	0.177	0.215	1.25	1.11	0.902	0.853	0.406
